Experimental data taken from patent US11453671B2, “Pyrazolopyrimidine inhibitors of JAK kinases and uses thereof” (Genentech, Inc., priority 2020, dated 2022).
pIC50, pKi: −log10 of the molar value.

Tests used:
[1] = target: T1, recombinant human JAK1 kinase domain protein (Residues 854-1154) (Homo sapiens, UniProt P23458); test: JAK1 biochemical assay (microfluidic mobility shift, peptide phosphorylation); settings: 25 μM ATP, 1 nM total JAK1; read-out: Enzyme JAK1 Ki
T1 construct: human JAK1 kinase domain protein (Residues 854-1154); purchased Proteros Biostructures GmbH (Martinsried, Germany); host or cells: insect cells
Excerpt: JAK1 and JAK2 Biochemical Assays

[2] = Cell cytotoxicity assay HEK-293T (CellTiter-Glo, 72 hours); type: cell-based; settings: human, HEK-293T cells, read-out: Cytotox K-293 EC50
Excerpt: (§1) Cytotoxicity assays. Hepatocyte toxicity, general cytotoxicity or cytotoxicity of unknown mechanism is an undesirable feature for a potential drug, including inhaled drugs. It may be of benefit for an inhaled JAK1 or JAK1/JAK2 inhibitor to have low intrinsic cytotoxicity against various cell types. Typical cell types used to assess cytotoxicity include both primary cells such as human hepatocytes, and proliferating established cell lines such as Jurkat and HEK-293. […] Methods of measuring cytotoxicity are known in the art. In some embodiments, compounds described herein were tested as follows:
(§2) (a) Jurkat and HEK293T cells were maintained at a sub confluent density in T175 flasks. Cells were plated at 450 cells/45 μl medium in Greiner 384 well black/clear tissue culture treated plates. (Greiner Catalog #781091). After dispensing cells, plates were equilibrated at room temperature for 30 minutes. After 30 minutes at room temperature, cells were incubated overnight at 37° C. in a CO2 and humidity controlled incubator. The following day, cells were treated with compounds diluted in 100% DMSO (final DMSO concentration on cells=0.5%) with a 10 point dose-response curve with a top concentration of 50 μM. Cells and compounds were then incubated for 72 hours overnight at 37° C. in a CO2 and humidity controlled incubator. After 72 hours of incubation, viability was measured using CellTiterGlo® (Promega Catalog #G7572) to all wells. After incubation at room temperature for 20 minutes, plates were read on EnVision™ (Perkin Elmer Life Sciences) using luminescence mode;
(§3) A549 (ATCC® CCL-185™), Jurkat clone E6-1 (ATCC® TIB-152™) and HEK-293T (ATCC® CRL-1573™) cells maintained at a sub-confluent density in T175 flasks were used. Cells in exponential growth phase were plated (450 cells in 45 μL of medium) in Greiner 384-well black/clear tissue culture treated plates (Greiner Catalog No. 781091). After dispensing cells, plates were allowed to equilibrate at room temperature for 30 minutes, after which time the cell plates were placed overnight in a 37° C. CO2 and humidity-controlled incubator. The following day, cells were treated with test agent diluted in 100% DMSO (0.5% final DMSO concentration on cells) with a 10-point titration and a top concentration of 50 μM. Cells and compounds were then incubated for 72 hours in a 37° C. CO2 and humidity-controlled incubator, after which time cell viability was measured by adding CellTiter-Glo® (Promega G7572) reagent to all wells. Plates were incubated at room temperature for 20 minutes and then the well luminescence was read on an EnVision plate reader (Perkin Elmer Life Sciences).

[3] = Cell cytotoxicity assay A549 (CellTiter-Glo, 72 hours); type: cell-based; settings: human, A549 cells, read-out: Cytotox A549 EC50
Protocol: as §3

[4] = target: Recombinant human JAK2 kinase domain protein (Residues 812-1132) (Homo sapiens, UniProt O60674); test: JAK2 biochemical assay (microfluidic mobility shift, peptide phosphorylation); settings: Enzyme JAK2 Ki (nM), 25 μM ATP, 0.2 nM total JAK2
[5] = system: JAK1: IL-13-stimulated STAT6 phosphorylation in BEAS-2B cells; test: P-STAT6 BEAS-2B+IL-13 Cell Assay; type: cell-based, human; settings: Homo sapiens, BEAS-2B, IL-13 stimulation, read-out: Cellular JAK1 PSTAT6 BEAS2B + IL13 IC50
Protocol: P-STAT6 BEAS-2B+IL-13 Cell Assay
In order to study the effect of JAK1 inhibitors in a cell line that is relevant to the cell biology of human asthma, an IL-13-stimulated STAT6 phosphorylation assay in the human lung bronchial epithelial BEAS-2B cell line was developed.
BEAS-2B cells (ATCC® CRL-9609™) were grown in Bronchial Epithelial Growth Medium (BEGM) (Lonza Catalog No. CC-3170; Walkersville, Md.; or PromoCell Catalog No. C-21060; Heidelberg, Germany). Test compound stock solutions (0.5 mM in DMSO) were serially diluted 1:2 in DMSO to generate a 10-point concentration curve (at 500×test concentration), which was further diluted by a 50-fold dilution step in BEGM to generate a 10× concentration curve (in 2% DMSO). Cells were plated at 100,000 cells/well in 200 μL of BEGM in 96-well plates and incubated for 48 hours at 37° C. in a humidified incubator. Medium was aspirated from the cells and replaced with 70 μL of fresh BEGM. Diluted test compound (10 μL; or 2% DMSO in assay medium) was added to the cells, and the plates were incubated for 1 hour at 37° C. in a humidified incubator. Twenty μL of 250 ng/mL human recombinant IL-13 (Bio Techne Catalog No. 213-ILB) was then added to the cells and incubated for 15 minutes at 37° C. Medium was aspirated from the cells and 60 μL of ice-cold 1×cell lysis buffer (Cell Signaling Technologies; Catalog No. 9803S) containing 1 mM PMSF was added to the cells. Assay plates were incubated at −80° C. for at least 1 hour. P-STAT6 was measured by coating GAR plates (MSD; Catalog No. L45RA-1) with rabbit anti-human total STAT6 antibody (Cell Signaling Technologies; Catalog No. 9362S), incubating the cell lysates in the coated plates overnight at 4° C., and then detecting with mouse anti-phospho-STAT6 (Tyr641) Clone 16E12 antibody (Millipore; Catalog No. 05-590, custom labeled by MSD with SULFO-tag) using standard MSD plate processing, washing, and detection protocols. Plates were read on the MESO SECTOR S600. Data Analysis
Data analysis was performed by subtracting negative control values from all wells and determining percent of control using the positive control values; the IC50 was determined with a four-parameter logistic fit model as shown in Equation 4.

[6] = Cell cytotoxicity assay Jurkat (CellTiter-Glo, 72 hours); type: cell-based; settings: human, Jurkat clone E6-1 cells, read-out: Cytotox Jurkat EC50
Excerpt: as §1, §2, §3

[7] = Table 3, 72 hours, top concentration of 50 μM
[8] = Table 4, methyl-desmethyl analog pairs

Sequence of Recombinant human JAK2 kinase domain protein (Residues 812-1132) (O60674 812-1132): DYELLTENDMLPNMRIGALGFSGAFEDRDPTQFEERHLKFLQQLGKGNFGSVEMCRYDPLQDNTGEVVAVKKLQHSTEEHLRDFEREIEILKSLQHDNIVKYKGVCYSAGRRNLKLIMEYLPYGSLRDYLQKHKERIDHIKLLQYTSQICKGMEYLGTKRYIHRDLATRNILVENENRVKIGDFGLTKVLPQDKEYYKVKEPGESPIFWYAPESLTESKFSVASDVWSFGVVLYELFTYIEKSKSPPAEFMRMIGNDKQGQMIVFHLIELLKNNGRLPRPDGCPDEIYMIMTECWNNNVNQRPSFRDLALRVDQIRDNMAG
T1 sequence (P23458 854-1154): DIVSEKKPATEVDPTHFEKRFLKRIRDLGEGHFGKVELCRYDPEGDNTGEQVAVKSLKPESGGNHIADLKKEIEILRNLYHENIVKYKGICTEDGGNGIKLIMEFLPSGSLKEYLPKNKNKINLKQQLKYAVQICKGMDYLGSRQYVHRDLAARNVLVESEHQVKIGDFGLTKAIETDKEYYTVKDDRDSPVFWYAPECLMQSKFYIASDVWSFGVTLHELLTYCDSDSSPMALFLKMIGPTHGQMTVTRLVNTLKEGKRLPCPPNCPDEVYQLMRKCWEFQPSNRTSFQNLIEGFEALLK

| pKi [1] | Ki [4] | Compound | EC50 at 72 h [2, 7] | EC50 at 72 h [2, 8] | EC50 at 72 h [3, 7] | EC50 at 72 h [3, 8] | pIC50 [5] | EC50 at 72 h [6, 7] | EC50 at 72 h [6, 8] |
| --- | --- | --- | --- | --- | --- | --- | --- | --- | --- |
| 9.57 | 0.18 nM | Cn1cc(NC(=O)c2cnn3cccnc23)c(-c2cc(S(=O)(=O)C(F)F)ccc2OC(F)F)n1 [Example 9, N-[3-[2-(difluoromethoxy)-5-(difluoromethylsulfonyl)phenyl]-1-methyl-pyrazol-4-yl]pyrazolo[1,5-a]pyrimidine-3-carboxamide] | 2200 nM | 2200 nM | 1660 nM | 1660 nM | 7.82 | 3500 nM | 3500 nM |
| – | – | CCS(=O)(=O)c1ccc(OC(F)F)c(-c2n[nH]cc2NC(=O)c2cnn3cccnc23)c1 [Example. 192 in WO201708 9390, reference compound] | – | 437 nM | – | 2370 nM | – | – | 790 nM |
| 9.22 | 0.25 nM | CC(O)C(C)S(=O)(=O)c1ccc(OC(F)F)c(-c2nn(C)cc2NC(=O)c2cnn3cccnc23)c1 (single isomer, unassigned) [Example 68, N-[3-[2-(difluoromethoxy)-5-(2-hydroxy-1-methyl-propyl)sulfonyl-phenyl]-1-methyl-pyrazol-4-yl]pyrazolo[1,5-a]pyrimidine-3-carboxamide] | 19000 nM | – | ≥ 50000 nM | – | 7.21 | 32000 nM | – |
| 9.32 | – | CCS(=O)(=O)c1ccc(OC(F)F)c(-c2nn(C)cc2NC(=O)c2cnn3cccnc23)c1 [Example 6, N-[3-[2-(difluoromethoxy)-5-ethylsulfonyl-phenyl]-1-methyl-pyrazol-4-yl]pyrazolo[1,5-a]pyrimidine-3-carboxamide] | 6050 nM | 6050 nM | 6750 nM | 6750 nM | 7.74 | 21500 nM | 21500 nM |
| – | – | CS(=O)(=O)c1ccc(OC(F)F)c(-c2n[nH]cc2NC(=O)c2cnn3cccnc23)c1 [Example 4 in WO201708 9390, reference compound] | – | 2100 nM | – | 22000 nM | – | – | 6200 nM |
| 9.03 | 1.5 nM | CN1CCC[C@H]1Cn1cc(NC(=O)c2cnn3cccnc23)c(-c2cc(S(C)(=O)=O)ccc2OC(F)F)n1 [Example 72, N-[3-[2-(difluoromethoxy)-5-methylsulfonyl-phenyl]-1-[[(2S)-1-methylpyrrolidin-2-yl]methyl]pyrazol-4-yl]pyrazolo[1,5-a]pyrimidine-3-carboxamide] | 20000 nM | – | ≥ 50000 nM | – | 7.51 | 49000 nM | – |
| 9.68 | 0.12 nM | Cn1cc(NC(=O)c2cnn3cccnc23)c(-c2cc(S(=O)(=O)c3cccc(O)c3)ccc2OC(F)F)n1 [Example 11, N-[3-[2-(difluoromethoxy)-5-(3-hydroxyphenyl)sulfonyl-phenyl]-1-methyl-pyrazol-4-yl]pyrazolo[1,5-a]pyrimidine-3-carboxamide] | 3700 nM | – | 6400 nM | – | 7.77 | 5500 nM | – |
| 9.47 | 0.25 nM | C[C@H](O)Cn1cc(S(=O)(=O)c2ccc(OC(F)F)c(-c3nn(C)cc3NC(=O)c3cnn4cccnc34)c2)cn1 [Example 38, N-[3-[2-(difluoromethoxy)-5-[1-[(2S)-2-hydroxypropyl]pyrazol-4-yl]sulfonyl-phenyl]-1-methyl-pyrazol-4-yl]pyrazolo[1,5-a]pyrimidine-3-carboxamide] | – | – | – | – | 7.05 | – | – |
| – | – | O=C(Nc1c[nH]nc1-c1cc(S(=O)(=O)C(F)F)ccc1OC(F)F)c1cnn2cccnc12 [reference compound] | – | 38 nM | – | 260 nM | – | – | 160 nM |
